Here are results for five molecules from PMC9574867, “Discovery and Characterization of Synthesized and FDA-Approved Inhibitors of Clostridial and Bacillary Collagenases” (Journal of Medicinal Chemistry, 2022).

Molecules are shown by their SMILES. Entries after “also recorded” stand apart in the source; their conditions may differ.

For the test, the system named is MDCK II cells challenged with B. cereus AH187 supernatant. The class given is cell-based, canine.
As to `O=P(O)(O)c1nc2ccc(Br)cc2nc1P(=O)(O)O` [Compound 10, (6-Bromoquinoxaline-2,3-diyl)bis(phosphonic acid)], the “TEER of MDCK II cells challenged with supernatant” value (from here on “TEER of MDCK II cells challenged”) is “retain the TEER of the challenged cells”.

In the case of `O=P([O-])(O)C(Sc1ccc(Cl)cc1)P(=O)([O-])O.[Na+].[Na+]` [Tiludronate disodium, reference compound], the “TEER of MDCK II cells challenged” value is listed as “maintained the TEER of MDCK II cells challenged with B. cereus supernatant”. The result for `O=P(O)(O)c1nc2ccc(-c3ccc(Cl)cc3)cc2nc1P(=O)(O)O` [Compound 15, (6-(4-Chlorophenyl)quinoxaline-2,3-diyl)bis(phosphonic acid)] reads “maintained the TEER of MDCK II cells challenged with B. cereus supernatant”; that for `O=P(O)(O)c1nc2cc(Cl)c(Cl)cc2nc1P(=O)(O)O` [Compound 13, (6,7-Dichloroquinoxaline-2,3-diyl)bis(phosphonic acid)], “retain the TEER of the challenged cells; also recorded: maintained the TEER of MDCK II cells challenged with B. cereus supernatant”. With `Cc1ccc2nc(P(=O)(O)O)c(P(=O)(O)O)nc2c1` [Compound 11, (6-Methylquinoxaline-2,3-diyl)bis(phosphonic acid)], the “TEER of MDCK II cells challenged” value was “maintained the TEER of MDCK II cells challenged with B. cereus supernatant”.
